Results published in PMC3361698 (Chemistry & biology, 2012).

Assays:
[1] = molecular target: T1, EcPPCS (phosphopantothenoylcysteine synthetase) (Escherichia coli, UniProt P0ABQ0); test: CD melting temperature shift; assay type: binding
[2] = molecular target: T2, SaCoaBC (bifunctional CoaBC protein, phosphopantothenoylcysteine synthetase) (Staphylococcus aureus, UniProt Q2G268); test: progress curve inhibition analysis; assay type: biochemical
T2 sequence (Q2G268 1-399): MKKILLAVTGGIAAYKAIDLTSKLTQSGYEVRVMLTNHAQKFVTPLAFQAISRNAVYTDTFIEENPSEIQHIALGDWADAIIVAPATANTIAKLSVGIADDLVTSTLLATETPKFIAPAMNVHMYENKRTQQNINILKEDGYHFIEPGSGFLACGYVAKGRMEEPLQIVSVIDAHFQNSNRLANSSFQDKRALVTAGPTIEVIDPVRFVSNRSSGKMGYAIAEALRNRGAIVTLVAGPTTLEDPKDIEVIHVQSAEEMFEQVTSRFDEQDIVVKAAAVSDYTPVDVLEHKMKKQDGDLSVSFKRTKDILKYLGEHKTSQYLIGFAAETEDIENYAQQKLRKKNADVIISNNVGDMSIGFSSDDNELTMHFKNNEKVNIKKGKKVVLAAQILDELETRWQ

[3] = molecular target: T1, EcPPCS (phosphopantothenoylcysteine synthetase); test: progress curves with Morrison fit, inhibitor formed in situ from P-CJ and CTP; assay type: biochemical
[4] = molecular target: T1, EcPPCS (phosphopantothenoylcysteine synthetase); test: pyrophosphate release, HPLC/LCMS of cytidylylation; assay type: biochemical
[5] = molecular target: T3, SaPanKII (pantothenate kinase, type II) (Staphylococcus aureus, UniProt Q8NVG0); assay type: biochemical
[6] = molecular target: T3, SaPanKII (pantothenate kinase, type II); test: coupled spectrophotometric kinase assay with purified enzyme; assay type: biochemical
[7] = molecular target: T1, EcPPCS (phosphopantothenoylcysteine synthetase); test: CD melting temperature shift; assay type: binding; remark: listed apart in the source

T1 sequence (P0ABQ0 181-406): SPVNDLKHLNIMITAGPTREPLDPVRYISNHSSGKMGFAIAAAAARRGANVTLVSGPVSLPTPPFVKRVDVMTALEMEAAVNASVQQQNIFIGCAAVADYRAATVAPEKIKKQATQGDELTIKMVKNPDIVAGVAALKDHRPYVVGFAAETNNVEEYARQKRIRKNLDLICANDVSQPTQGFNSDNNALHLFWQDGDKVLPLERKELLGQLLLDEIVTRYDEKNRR
T3 sequence (Q8NVG0 whole entry): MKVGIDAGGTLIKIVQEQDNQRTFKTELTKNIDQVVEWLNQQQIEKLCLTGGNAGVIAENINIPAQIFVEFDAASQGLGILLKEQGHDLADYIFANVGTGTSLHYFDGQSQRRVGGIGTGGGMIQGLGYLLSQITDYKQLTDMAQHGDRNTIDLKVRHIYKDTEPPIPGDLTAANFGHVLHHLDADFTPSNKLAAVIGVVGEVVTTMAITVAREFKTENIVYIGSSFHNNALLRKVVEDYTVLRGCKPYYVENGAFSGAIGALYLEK

## CC(C)(COP(=O)(O)O)[C@@H](O)C(=O)NCCC(=O)OP(=O)(O)OC[C@H]1O[C@@H](n2ccc(N)nc2=O)[C@H](O)[C@@H]1O [compound 14, P-Pan-CMP]
[1]
  CD melting temperature shift (47.7 to 54.3 °C), formed in situ from P-Pan and CT: 54.3 °C (Tm)

## CC(C)(COP(=O)(O)O)[C@@H](O)C(=O)N/C=C/C(=O)OP(=O)(O)OC[C@H]1O[C@@H](n2ccc(N)nc2=O)[C@H](O)[C@@H]1O [compound 16, P-CJ-CMP]
[2]
  Ki: 13 nM
[3]
  Ki: 164 nM

## CC(C)(COP(=O)(O)O)[C@@H](O)C(=O)N/C=C/C(=O)O [compound 13, P-CJ]
[4]
  IC50: 2660 ± 160 nM

## CC(C)(CO)[C@@H](O)C(=O)N/C=C/C(=O)O [compound 1, CJ-15,801]
[5]
  HPLC of phosphorylation and coupled spectrophotometric kinase assay with purifie: 13.8±4.2 mM^−1.s^−1 (kcat/Km)

## CC(C)(CO)[C@@H](O)C(=O)NCCC(=O)O [compound 2, pantothenic acid]
[6]
  coupled spectrophotometric kinase assay with purified enzyme: 30.2±8.7 mM^−1.s^−1 (kcat/Km)

## Nc1ccn([C@@H]2O[C@H](COP(=O)(O)OP(=O)(O)OP(=O)(O)O)[C@@H](O)[C@H]2O)c(=O)n1 [CTP]
[7]
  CD melting temperature shift (47.7 to 49.7 °C): 49.7 °C (Tm)
